These results are taken from patent publication US8163793B2, “Proline derivatives” (Hoffman-La Roche Inc., priority 2009, dated 2012).

Assay [1] has as its target Cathepsin S (UniProt P25774). Put plainly: Cathepsin enzyme inhibition assay (fluorogenic peptide substrate Z-Val-Val-Arg-AMC), Cathepsin S. As to conditions: enzyme 1 nM, substrate 20 μM, pH 6.5; read-out: CatS IC50. It counts as biochemical, human and mouse. A digest of the protocol: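 Human or mouse cathepsin S (1 nM) was run in 100 mM potassium phosphate pH 6.5 with 5 mM EDTA, 0.001% Triton X-100 and 5 mM DTT. The rise in AMC fluorescence from cleavage was measured, and IC50 values were calculated by standard methods and expressed in μM.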

Assay [2] has as its target Cat L (UniProt P07711). Put plainly: Cathepsin enzyme inhibition assay (fluorogenic peptide substrate Z-Val-Val-Arg-AMC), Cathepsin L. As to conditions: enzyme 1 nM, substrate 20 μM, pH 6.5; read-out: CatL IC50. It counts as biochemical, human and mouse. In short, it runs like this:
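Cathepsin L at 1 nM was mixed with compound, then started with 20 μM Z-Val-Val-Arg-AMC in pH 6.5 potassium phosphate with EDTA, Triton X-100 and 5 mM DTT. AMC fluorescence (ex 360/em 465 nm) was followed over 20 min. IC50 is given in μM.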

SMILES strings stand for the structures. Where only a bound is given, the exact number is not on record here.

The term IC50 denotes the concentration that inhibits the measured activity by half. Consider `CC(C)(C)OC(=O)N1C[C@H](S(=O)(=O)c2ccc(N3CCC(F)(F)C3)cc2Cl)C[C@H]1C(=O)NC1(C#N)CC1` [Example 130, (2S,4R)-4-[2-Chloro-4-(3,3-difluoro-pyrrolidin-1-yl)-benzenesulfonyl]-2-(1-cyano-cyclopropylcarbamoyl)-pyrrolidine-1-carboxylic acid tert.-butyl ester], for which the IC50 was 2.4 nM in assay [1] and no less than 25000 nM in assay [2].

For `CC(=O)N1C[C@H](S(=O)(=O)c2ccc(-n3cccn3)cc2Cl)C[C@H]1C(=O)NC1(C#N)CC1` [Example 131, (2S,4R)-1-Acetyl-4-(2-chloro-4-pyrazol-1-yl-benzenesulfonyl)-pyrrolidine-2-carboxylic acid (1-cyano-cyclopropyl)-amide formiate], the 50% inhibitory concentration (IC50) in assay [1] was found to be 0.9 nM; in assay [2] it was 33900 nM.

Regarding `CC(=O)N1C[C@H](S(=O)(=O)c2ccc(OC(C)C(F)(F)F)cc2Cl)C[C@H]1C(=O)NC1(C#N)CC1` (stereo partly drawn) [Example 132, (2S,4R)-1-Acetyl-4-[2-chloro-4-(2,2,2-trifluoro-1-methyl-ethoxy)-benzenesulfonyl]-pyrrolidine-2-carboxylic acid (1-cyano-cyclopropyl)-amide], the IC50 stood at 3.8 nM in assay [1] and 35000 nM in assay [2].

With `CC(=O)N1C[C@H](S(=O)(=O)c2ccc(N3CCCCC3)cc2Cl)C[C@H]1C(=O)NC1(C#N)CC1` [Example 133, (2S,4R)-1-Acetyl-4-(2-chloro-4-piperidin-1-yl-benzenesulfonyl)-pyrrolidine-2-carboxylic acid (1-cyano-cyclopropyl)-amide formiate], the IC50 in assay [1] came to 0.9 nM; in assay [2], 23400 nM.

For `CC(=O)N1C[C@H](S(=O)(=O)c2ccc(F)cc2Cl)C[C@H]1C(=O)NC1(C#N)CC1` [Example 134, (2S,4R)-1-Acetyl-4-(2-chloro-4-fluoro-benzenesulfonyl)-pyrrolidine-2-carboxylic acid (1-cyano-cyclopropyl)-amide], the IC50 in assay [1] is 6.2 nM; in assay [2], no less than 25000 nM.

As to `N#CC1(NC(=O)[C@@H]2C[C@@H](S(=O)(=O)c3ccc(N4CCCCC4)cc3Cl)CN2C(=O)C2(C(F)(F)F)CC2)CC1` [Example 135, (2S,4R)-4-(2-Chloro-4-piperidin-1-yl-benzenesulfonyl)-1-(1-trifluoromethyl-cyclopropanecarbonyl)-pyrrolidine-2-carboxylic acid (1-cyano-cyclopropyl)-amide], the IC50 stood at 0.3 nM in assay [1] and 3150 nM in assay [2].

As for `N#CC1(NC(=O)[C@@H]2C[C@@H](S(=O)(=O)c3ccc(N4CCC(F)(F)C4)cc3Cl)CN2)CC1` [Example 136, (2S,4R)-4-[2-Chloro-4-(3,3-difluoro-pyrrolidin-1-yl)-benzenesulfonyl]-pyrrolidine-2-carboxylic acid (1-cyano-cyclopropyl)-amide formiate], the IC50 came out at 2.2 nM in assay [1] and 12600 nM in assay [2].

For the molecule `COC(=O)c1ccc(C(=O)N2C[C@H](S(=O)(=O)c3ccccc3C(F)(F)F)C[C@H]2C(=O)NCC#N)cc1` [Example 137, 4-[(2S,4R)-2-(Cyanomethyl-carbamoyl)-4-(2-trifluoromethyl-benzenesulfonyl)-pyrrolidine-1-carbonyl]-benzoic acid methyl ester], the IC50 in assay [1] is 1 nM; in assay [2], no less than 25000 nM.

For `CCN1CCN(c2ccc(S(=O)(=O)[C@@H]3C[C@@H](C(=O)NC4(C#N)CC4)N(C(=O)OC(C)(C)C)C3)c(Cl)c2)CC1` [Example 138, (2S,4R)-4-[2-Chloro-4-(4-ethyl-piperazin-1-yl)-benzenesulfonyl]-2-(1-cyano-cyclopropylcarbamoyl)-pyrrolidine-1-carboxylic acid tert.-butyl ester], the IC50 turned out to be 3.4 nM in assay [1] and 28600 nM in assay [2].

Take `CC(C)(C)OC(=O)N1C[C@H](S(=O)(=O)c2ccc(OCCN3CCCCC3)cc2Cl)C[C@H]1C(=O)NC1(C#N)CC1` [Example 139, (2S,4R)-4-[2-Chloro-4-(2-piperidin-1-yl-ethoxy)-benzenesulfonyl]-2-(1-cyano-cyclopropylcarbamoyl)-pyrrolidine-1-carboxylic acid tert.-butyl ester]: the figures for the IC50 in assay [1] and in assay [2] were 7.8 nM and no less than 25000 nM, respectively.

Turning to `CCN1CCN(c2ccc(S(=O)(=O)[C@H]3CN[C@H](C(=O)NC4(C#N)CC4)C3)c(Cl)c2)CC1` [Example 140, (2S,4R)-4-[2-Chloro-4-(4-ethyl-piperazin-1-yl)-benzenesulfonyl]-pyrrolidine-2-carboxylic acid (1-cyano-cyclopropyl)-amide formiate], the IC50 in assay [1] came to 5.9 nM; in assay [2], 24500 nM.

`CCN1CCN(c2ccc(S(=O)(=O)[C@@H]3C[C@@H](C(=O)NC4(C#N)CC4)N(C(=O)C4(C(F)(F)F)CC4)C3)c(Cl)c2)CC1` [Example 141, (2S,4R)-4-[2-Chloro-4-(4-ethyl-piperazin-1-yl)-benzenesulfonyl]-1-(1-trifluoromethyl-cyclopropanecarbonyl)-pyrrolidine-2-carboxylic acid (1-cyano-cyclopropyl)-amide]: the IC50 in assay [1] stood at 0.6 nM; in assay [2], 3460 nM.

Regarding `CCN1CCN(c2ccc(S(=O)(=O)[C@@H]3C[C@@H](C(=O)NC4(C#N)CC4)N(C(=O)C4(C(F)(F)F)CC4)C3)c(Cl)c2)CC1` [Example 142, (2S,4R)-4-[2-Chloro-4-(4-ethyl-piperazin-1-yl)-benzenesulfonyl]-1-(1-trifluoromethyl-cyclopropanecarbonyl)-pyrrolidine-2-carboxylic acid (1-cyano-cyclopropyl)-amide formiate], the results for the IC50 in assay [1] and in assay [2] were 0.3 nM and 2480 nM, respectively.

For `CCN1CCN(c2ccc(S(=O)(=O)[C@@H]3C[C@@H](C(=O)NC4(C#N)CC4)N(C=O)C3)c(Cl)c2)CC1` [Example 143, (2S,4R)-4-[2-Chloro-4-(4-ethyl-piperazin-1-yl)-benzenesulfonyl]-1-formyl-pyrrolidine-2-carboxylic acid (1-cyano-cyclopropyl)-amide], the IC50 in assay [1] came out at 4.3 nM; in assay [2], 28100 nM.

Take `N#CC1(NC(=O)[C@@H]2C[C@@H](S(=O)(=O)c3ccc(F)cc3Cl)CN2)CC1` [Example 144, (2S,4R)-4-(2-Chloro-4-fluoro-benzenesulfonyl)-pyrrolidine-2-carboxylic acid (1-cyano-cyclopropyl)-amide]: the IC50 in assay [1] worked out at 9.7 nM; in assay [2], 28200 nM.

For the molecule `N#CC1(NC(=O)[C@@H]2C[C@@H](S(=O)(=O)c3ccc(F)cc3Cl)CN2C(=O)C2(C(F)(F)F)CC2)CC1` [Example 145, (2S,4R)-4-(2-Chloro-4-fluoro-benzenesulfonyl)-1-(1-trifluoromethyl-cyclopropanecarbonyl)-pyrrolidine-2-carboxylic acid (1-cyano-cyclopropyl)-amide], the values for the IC50 in assay [1] and in assay [2] were 0.6 nM and 11800 nM, respectively.

For `N#CC1(NC(=O)[C@@H]2C[C@@H](S(=O)(=O)c3ccc(N4CCCCC4)cc3Cl)CN2C=O)CC1` [Example 146, (2S,4R)-4-(2-Chloro-4-piperidin-1-yl-benzenesulfonyl)-1-formyl-pyrrolidine-2-carboxylic acid (1-cyano-cyclopropyl)-amide formiate], the IC50 in assay [1] came out at 6.4 nM; in assay [2] it was 25500 nM.

As for `N#CC1(NC(=O)[C@@H]2C[C@@H](S(=O)(=O)c3ccc(-n4cccn4)cc3Cl)CN2C(=O)C2(C(F)(F)F)CC2)CC1` [Example 147, (2S,4R)-4-(2-Chloro-4-pyrazol-1-yl-benzenesulfonyl)-1-(1-trifluoromethyl-cyclopropanecarbonyl)-pyrrolidine-2-carboxylic acid (1-cyano-cyclopropyl)-amide], the figures for the IC50 in assay [1] and in assay [2] were 0.4 nM and 13600 nM, respectively.

On to `N#CC1(NC(=O)[C@@H]2C[C@@H](S(=O)(=O)c3ccc(-n4cccn4)cc3Cl)CN2C=O)CC1` [Example 148, (2S,4R)-4-(2-Chloro-4-pyrazol-1-yl-benzenesulfonyl)-1-formyl-pyrrolidine-2-carboxylic acid (1-cyano-cyclopropyl)-amide], for which the half-maximal inhibitory concentration (IC50) in assay [1] is 16 nM; in assay [2], no less than 25000 nM.

Regarding `CC(Oc1ccc(S(=O)(=O)[C@@H]2C[C@@H](C(=O)NC3(C#N)CC3)N(C(=O)C3(C(F)(F)F)CC3)C2)c(Cl)c1)C(F)(F)F` (stereo partly drawn) [Example 149, (2S,4R)-4-[2-Chloro-4-(2,2,2-trifluoro-1-methyl-ethoxy)-benzenesulfonyl]-1-(1-trifluoromethyl-cyclopropanecarbonyl)-pyrrolidine-2-carboxylic acid (1-cyano-cyclopropyl)-amide], the IC50 in assay [1] is 0.7 nM; in assay [2], 8100 nM.

In the case of `CC(Oc1ccc(S(=O)(=O)[C@@H]2C[C@@H](C(=O)NC3(C#N)CC3)N(C=O)C2)c(Cl)c1)C(F)(F)F` (stereo partly drawn) [Example 150, (2S,4R)-4-[2-Chloro-4-(2,2,2-trifluoro-1-methyl-ethoxy)-benzenesulfonyl]-1-formyl-pyrrolidine-2-carboxylic acid (1-cyano-cyclopropyl)-amide], the IC50 was determined as 1.7 nM in assay [1] and 27900 nM in assay [2].

On to `CC(C)(C)OC(=O)N1C[C@H](S(=O)(=O)c2ccc(N3CCC(F)(F)CC3)cc2Cl)C[C@H]1C(=O)NC1(C#N)CC1` [Example 152, (2S,4R)-4-[2-Chloro-4-(4,4-difluoro-piperidin-1-yl)-benzenesulfonyl]-2-(1-cyano-cyclopropylcarbamoyl)-pyrrolidine-1-carboxylic acid tert.-butyl ester], for which the half-inhibitory concentration (IC50) in assay [1] was 2.2 nM; in assay [2] it was 30800 nM.
